Assays:
[1] = system: Human immunodeficiency virus 1; test: Antiviral activity against HIV-1 Z1800M E4.02 (R5) pseudovirus infected in human TZM-blcells assessed as reduction in viral infectivity measured after 48 hrs of postinfection by luminescence assay; format: functional, organism-based; settings: Human immunodeficiency virus 1, Z1800M E4.02 (R5), TZM-bl
D(2) dopamine receptor = D(2) dopamine receptor (Homo sapiens, UniProt P14416); test: Inhibition of dopamine D2 receptor (unknown origin)
[2] = AUC(0 to 8 h) in mouse plasma at 30 mg/kg, po measured at 24 hrs by LC-MS/MS analysis; format: ADME, organism-based; parameters: route oral, time 24 hrs, dose 30 mg/kg; settings: in vivo
Homo sapiens [3] = species: Homo sapiens; test: Selectivity index, ratio of IC50 for inhibition of recombinant human CYP1A2 to IC50 for antagonist activity at human CXCR4 receptor expressed in CCRF-CEM cells; format: cell-based
[4] = biological target: C-X-C chemokine receptor type 1 (Homo sapiens) (UniProt P25024); test: Inhibition of human CXCR1 at 10 uM relative to control
Sequence of C-X-C chemokine receptor type 1 (Homo sapiens) (P25024 whole entry): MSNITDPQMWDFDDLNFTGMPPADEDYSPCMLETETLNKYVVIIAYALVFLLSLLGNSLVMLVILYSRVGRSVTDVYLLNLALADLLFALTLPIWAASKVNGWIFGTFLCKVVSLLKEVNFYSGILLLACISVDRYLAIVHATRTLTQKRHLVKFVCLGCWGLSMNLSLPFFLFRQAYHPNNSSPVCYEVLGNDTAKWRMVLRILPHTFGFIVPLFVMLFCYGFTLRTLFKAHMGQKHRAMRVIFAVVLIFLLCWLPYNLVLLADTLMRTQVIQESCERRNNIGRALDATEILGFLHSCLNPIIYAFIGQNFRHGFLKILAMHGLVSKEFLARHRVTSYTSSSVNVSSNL

[5] = AUC(0 to 8 h) in mouse plasma at 10 mg/kg, po measured at 24 hrs by LC-MS/MS analysis; format: ADME, organism-based; parameters: route oral, dose 10 mg/kg, time 24 hrs; settings: in vivo
Homo sapiens [6] = species: Homo sapiens; test: Selectivity index, ratio of IC50 for Inhibition of human ERG to IC50 for antagonist activity at human CXCR4 receptor expressed in CCRF-CEM cells; format: cell-based
Homo sapiens [7] = species: Homo sapiens; test: Selectivity index, ratio of IC50 for inhibition of recombinant human CYP2C9 to IC50 for antagonist activity at human CXCR4 receptor expressed in CCRF-CEM cells; format: cell-based
[8] = biological target: T1, Alpha-2C adrenergic receptor (Homo sapiens, UniProt P18825); test: Inhibition of alpha 2C adrenergic receptor (unknown origin)
T1 sequence (P18825 whole entry): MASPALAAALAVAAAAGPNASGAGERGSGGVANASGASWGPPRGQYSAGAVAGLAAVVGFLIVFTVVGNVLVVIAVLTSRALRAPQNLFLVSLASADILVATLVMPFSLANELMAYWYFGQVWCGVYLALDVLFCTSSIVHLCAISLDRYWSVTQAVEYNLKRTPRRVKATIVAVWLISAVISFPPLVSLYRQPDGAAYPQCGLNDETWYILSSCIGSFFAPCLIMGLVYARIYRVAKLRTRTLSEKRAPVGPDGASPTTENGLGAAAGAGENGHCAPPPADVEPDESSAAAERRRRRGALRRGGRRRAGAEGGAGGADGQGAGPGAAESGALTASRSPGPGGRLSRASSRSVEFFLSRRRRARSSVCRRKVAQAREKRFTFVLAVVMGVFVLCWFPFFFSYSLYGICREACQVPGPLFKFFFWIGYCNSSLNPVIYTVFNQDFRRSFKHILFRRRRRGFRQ

Homo sapiens [9] = species: Homo sapiens; test: Selectivity index, ratio of IC50 for inhibition of alpha7 nicotinic acetylcholine receptor (unknown origin) to IC50 for antagonist activity at human CXCR4 receptor expressed in CCRF-CEM cells; format: cell-based
[10] = Metabolic stability in human liver microsomes assessed compound remaining measured after 10 mins in presence of NADPH; format: ADME, Microsome; settings: read-out: Stability
[11] = Volume of distribution in mouse at 3 mg/kg, measured at 24 hrs by LC-MS analysis; format: ADME, organism-based; settings: in vivo
[12] = Drug concentration in mouse plasma at 10 mg/kg, po measured at 12 hrs by LC-MS/MS analysis; format: ADME, organism-based
[13] = Oral bioavailability in mouse at 3 mg/kg measured at 24 hrs by LC-MS/MS analysis; format: ADME, organism-based; settings: in vivo
Homo sapiens [14] = species: Homo sapiens; test: Selectivity index, ratio of IC50 for inhibition of hERG receptor (unknown origin) to IC50 for antagonist activity at human CXCR4 receptor expressed in CCRF-CEM cells; format: cell-based
Homo sapiens [15] = species: Homo sapiens; test: Selectivity index, ratio of IC50 for inhibition of kappa opioid receptor (unknown origin) to IC50 for antagonist activity at human CXCR4 receptor expressed in CCRF-CEM cells; format: cell-based
Cytochrome P450 2C8 = Cytochrome P450 2C8 (Homo sapiens, UniProt P10632); test: Inhibition of CYP2C8 (unknown origin); format: ADME
Sequence of Cytochrome P450 2C8 (P10632 whole entry): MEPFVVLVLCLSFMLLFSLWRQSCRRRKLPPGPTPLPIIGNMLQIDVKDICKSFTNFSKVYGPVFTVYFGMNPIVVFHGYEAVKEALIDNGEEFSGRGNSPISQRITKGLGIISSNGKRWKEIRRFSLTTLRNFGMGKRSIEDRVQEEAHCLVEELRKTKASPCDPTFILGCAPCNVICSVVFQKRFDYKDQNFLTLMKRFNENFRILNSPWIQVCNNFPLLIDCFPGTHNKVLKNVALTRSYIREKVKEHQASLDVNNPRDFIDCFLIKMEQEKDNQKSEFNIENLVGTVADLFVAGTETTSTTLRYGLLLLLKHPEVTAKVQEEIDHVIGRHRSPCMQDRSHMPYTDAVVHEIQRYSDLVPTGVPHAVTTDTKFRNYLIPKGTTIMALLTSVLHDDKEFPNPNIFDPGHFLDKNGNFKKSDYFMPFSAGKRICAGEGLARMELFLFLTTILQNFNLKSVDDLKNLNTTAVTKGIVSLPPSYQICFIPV

[16] = Oral bioavailability in mouse at 10 mg/kg measured at 24 hrs by LC-MS/MS analysis; format: ADME, organism-based; settings: in vivo
[17] = biological target: C-X-C chemokine receptor type 3 (Homo sapiens) (UniProt P49682); test: Inhibition of human CXCR3 at 10 uM relative to control
Sequence of C-X-C chemokine receptor type 3 (Homo sapiens) (P49682 whole entry): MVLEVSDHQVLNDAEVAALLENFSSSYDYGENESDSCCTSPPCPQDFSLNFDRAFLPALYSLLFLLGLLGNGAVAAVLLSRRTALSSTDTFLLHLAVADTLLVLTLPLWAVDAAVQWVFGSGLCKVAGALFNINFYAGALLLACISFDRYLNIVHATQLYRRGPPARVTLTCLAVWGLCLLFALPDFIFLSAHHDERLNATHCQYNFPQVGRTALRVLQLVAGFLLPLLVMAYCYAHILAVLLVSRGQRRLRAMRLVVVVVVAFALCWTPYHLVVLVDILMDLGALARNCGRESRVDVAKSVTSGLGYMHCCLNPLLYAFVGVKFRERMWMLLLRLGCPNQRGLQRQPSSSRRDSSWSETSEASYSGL

Homo sapiens [18] = species: Homo sapiens; test: Selectivity index, ratio of IC50 for inhibition of alpha 2C adrenergic receptor (unknown origin) to IC50 for antagonist activity at human CXCR4 receptor expressed in CCRF-CEM cells; format: cell-based
[19] = Drug concentration in mouse plasma at 30 mg/kg, po measured at 12 hrs by LC-MS analysis; format: ADME, organism-based
[20] = Metabolic stability in mouse liver microsomes assessed compound remaining measured after 10 mins in presence of NADPH; format: ADME, Microsome; settings: read-out: Stability
[21] = biological target: T2, Alpha-2A adrenergic receptor (Homo sapiens, UniProt P08913); test: Inhibition of alpha 2A adrenergic receptor (unknown origin)
T2 sequence (P08913 whole entry): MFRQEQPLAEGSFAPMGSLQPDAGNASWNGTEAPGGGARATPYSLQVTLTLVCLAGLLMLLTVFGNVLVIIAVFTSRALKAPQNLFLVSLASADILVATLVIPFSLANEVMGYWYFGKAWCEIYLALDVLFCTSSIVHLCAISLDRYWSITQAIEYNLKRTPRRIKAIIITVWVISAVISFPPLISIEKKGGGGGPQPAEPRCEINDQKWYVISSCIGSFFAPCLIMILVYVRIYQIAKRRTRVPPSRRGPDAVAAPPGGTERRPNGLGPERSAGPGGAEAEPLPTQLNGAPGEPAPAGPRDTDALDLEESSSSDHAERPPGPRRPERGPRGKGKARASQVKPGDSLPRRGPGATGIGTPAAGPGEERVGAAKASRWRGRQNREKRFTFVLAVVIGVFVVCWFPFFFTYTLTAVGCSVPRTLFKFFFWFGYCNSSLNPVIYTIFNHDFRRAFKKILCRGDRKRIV

[22] = Half life in mouse at 3 mg/kg, iv measured after 8 hrs by LC-MS/MS analysis; format: ADME, organism-based; settings: in vivo
[23] = biological target: C-C chemokine receptor type 6 (Homo sapiens) (UniProt P51684); test: Inhibition of human CCR6 at 10 uM relative to control
Sequence of C-C chemokine receptor type 6 (Homo sapiens) (P51684 whole entry): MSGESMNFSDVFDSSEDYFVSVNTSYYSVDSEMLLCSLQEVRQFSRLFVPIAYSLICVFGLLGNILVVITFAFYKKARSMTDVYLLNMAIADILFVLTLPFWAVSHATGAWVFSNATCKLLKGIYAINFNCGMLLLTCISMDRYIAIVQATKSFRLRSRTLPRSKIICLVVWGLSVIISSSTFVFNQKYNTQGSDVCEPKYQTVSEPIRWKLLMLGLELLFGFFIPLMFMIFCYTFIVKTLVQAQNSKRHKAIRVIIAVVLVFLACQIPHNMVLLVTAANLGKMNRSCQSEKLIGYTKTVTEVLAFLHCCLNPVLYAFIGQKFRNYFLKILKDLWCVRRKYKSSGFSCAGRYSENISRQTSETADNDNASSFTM

[24] = Clearence in mouse at 3 mg/kg, iv measured at 24 hrs by LC-MS analysis; format: ADME, organism-based; settings: in vivo
Homo sapiens [25] = species: Homo sapiens; test: Selectivity index, ratio of IC50 for inhibition of recombinant human CYP2C8 to IC50 for antagonist activity at human CXCR4 receptor expressed in CCRF-CEM cells; format: cell-based
[26] = biological target: C-C chemokine receptor type 5 (Homo sapiens) (UniProt P51681); test: Inhibition of human CCR5 at 10 uM relative to control
Sequence of C-C chemokine receptor type 5 (Homo sapiens) (P51681 whole entry, looked up): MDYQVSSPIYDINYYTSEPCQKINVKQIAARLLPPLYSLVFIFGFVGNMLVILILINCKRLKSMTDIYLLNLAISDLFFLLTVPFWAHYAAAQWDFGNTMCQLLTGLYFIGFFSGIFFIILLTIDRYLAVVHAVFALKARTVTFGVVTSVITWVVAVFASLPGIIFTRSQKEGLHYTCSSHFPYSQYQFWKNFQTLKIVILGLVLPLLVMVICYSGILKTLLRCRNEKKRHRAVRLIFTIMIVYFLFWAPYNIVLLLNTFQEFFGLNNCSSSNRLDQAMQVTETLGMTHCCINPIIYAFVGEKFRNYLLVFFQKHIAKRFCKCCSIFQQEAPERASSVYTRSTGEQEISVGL

[27] = Metabolic stability in rat liver microsomes assessed compound remaining measured after 10 mins in presence of NADPH; format: ADME, Microsome; settings: read-out: Stability
[28] = Permeability of compound at pH 7.4 incubated for 4 hrs by PAMPA assay; format: ADME; settings: read-out: permeability
Homo sapiens [29] = species: Homo sapiens; test: Selectivity index, ratio of IC50 for inhibition of alpha 2A adrenergic receptor (unknown origin) to IC50 for antagonist activity at human CXCR4 receptor expressed in CCRF-CEM cells; format: cell-based

Sequence of D(2) dopamine receptor (P14416 whole entry): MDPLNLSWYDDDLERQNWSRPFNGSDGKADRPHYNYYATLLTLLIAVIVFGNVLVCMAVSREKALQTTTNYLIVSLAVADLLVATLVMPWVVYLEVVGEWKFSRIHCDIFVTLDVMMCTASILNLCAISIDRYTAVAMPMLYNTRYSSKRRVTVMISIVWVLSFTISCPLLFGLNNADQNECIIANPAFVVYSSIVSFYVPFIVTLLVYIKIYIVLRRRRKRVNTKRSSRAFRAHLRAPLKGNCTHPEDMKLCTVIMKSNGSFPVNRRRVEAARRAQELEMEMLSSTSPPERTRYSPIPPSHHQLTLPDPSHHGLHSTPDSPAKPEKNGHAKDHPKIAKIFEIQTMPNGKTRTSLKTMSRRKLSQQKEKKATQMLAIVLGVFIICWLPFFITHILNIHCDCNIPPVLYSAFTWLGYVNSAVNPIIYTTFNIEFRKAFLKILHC

CN(CCCCN(C[C@H]1Cc2ncccc2CN1)[C@H]1CCCc2cccnc21)C1CCC(F)(F)CC1
IC50 [1]: > 10 µM | IC50 (D(2) dopamine receptor): > 30 µM | AUC [2]: 717 h/ng/mL | Selectivity Index (Homo sapiens [3]): > 710 | inhibition [4]: < 5% | AUC [5]: 190 h/ng/mL | Selectivity Index (Homo sapiens [6]): 710 | Selectivity Index (Homo sapiens [7]): > 710 | IC50 [8]: > 30 µM | Selectivity Index (Homo sapiens [9]): > 1000 | remaining at 10 min [10]: 61% | Vd [11]: 96.3 L/kg | concentration at 12 h [12]: 14.3 ng/mL | bioavailability [13]: 12.9% | Selectivity Index (Homo sapiens [14]): > 1000 | Selectivity Index (Homo sapiens [15]): > 1000 | IC50 (Cytochrome P450 2C8): > 20 µM | bioavailability [16]: 21.5% | inhibition [17]: < 5% | Selectivity Index (Homo sapiens [18]): > 1000 | concentration at 12 h [19]: 34.8 ng/mL | remaining at 10 min [20]: 35% | IC50 [21]: 0.81 µM | half-life [22]: 5.89 h | inhibition [23]: < 5% | clearance [24]: 188 mL/min/kg | Selectivity Index (Homo sapiens [25]): > 710 | inhibition [26]: < 5% | remaining at 10 min [27]: 8% | Papp at 4 h [28]: 31 ×10⁻⁶ cm/s | Selectivity Index (Homo sapiens [29]): > 1000

Reference: ChEMBL document CHEMBL5046278, “Synthesis and Evaluation of Novel Tetrahydronaphthyridine CXCR4 Antagonists with Improved Drug-like Profiles” (J Med Chem, 2022)
